# Reference: US20100203110A1, “Therapeutics for Cancer Using 3-Bromopyruvate and Other Selective Inhibitors of ATP Production” (The Johns Hopkins University, priority 2006, published 2010)
# What was measured:
# VX2 tumor glycolysis = experiment: Glycolytic activity (lactic acid formation) of VX2 tumor slices; type: cell-based, rabbit
# Protocol: Glycolysis was assayed by monitoring the formation of lactic acid following the addition of glucose to a medium containing VX2 tumor slices. Specifically, freshly excised tumors were washed 3 times at 4° C. in 20 ml Chance Hess Medium containing 6.2 mM KCl, 154 mM NaCl, and 11 mM NaPi, pH 7.4. Slices, 1 g each, were then prior incubated for 30 min in a Lab-Line incubator-shaker at 37° C. in 2 ml of the same medium while shaking at 50 rpm. Glucose was then added to give a final concentration of 6 mM, after which the incubation/shaking process was continued with 0.2 ml samples being removed every 30 min for up to 2 h. These samples were subjected to centrifugation at 14,000 rpm in an Eppendorf Centrifuge (Model 5415C). Then, aliquots of the supernatant, 0.01 ml, were removed from each sample, diluted with 0.03 ml of water and subjected to lactic acid determination using the kit supplied by Sigma. The latter contains, in addition to lactic dehydrogenase and NAD+, hydrazine, and glycine buffer, pH 9.2. The mixture was incubated for 30 min at 25° C. after which the absorbance due to formation of NADH was determined at 340 nm using a Gilford Model 260 spectrophotometer. To assess the elevation of the glycolytic activity of the VX2 tumor over that of liver tissue, parallel studies were always carried out in an identical manner with 1 g liver slices derived from the host liver. Finally, in those cases where agents were tested for their capacity to inhibit glycolysis, these were introduced into the system at the prior incubation step with all subsequent steps being run in parallel with those described above for the VX2 tumor or liver alone.
# The screen included the following 9 compounds: 2-deoxyglucose (2DOG), 2-fluoro-2-deoxyglucose, 6-fluoro-6-deoxyglucose, 3-O-methyl glucose, 5-thio-D-glucose-6-phosphate, L-glucose, D-xylose, D-lyxose, and 3-bromopyruvic acid (3BrPA). The screen was conducted by incubating VX2 tumor slices in a medium containing 6 mM glucose with 6 mM of each of these agents at 37° C. for 5 h. The use of 6 mM glucose in the medium was used to mimic the maximal amount of glucose that might be in the blood in a real in vivo situation.
# To compare the inhibitory effects of 2DOG and 3BrPA on the glycolytic capacity of the isolated liver implanted VX2 tumor, various concentrations of 2DOG and 3BrPA were prior incubated for 30 min at 37° C. with 1 g VX2 tumor slices and glycolysis was monitored.
# AS-30D hepatoma cells = experiment: Killing of AS-30D hepatoma cells (trypan blue); type: cell-based, rat; conditions: 5 mM, 12 h
# Protocol: AS-30D hepatoma cells grown in the peritoneal cavity of Sprague Dawley female rats (see Materials) were adapted to grow in tissue culture in Dulbecco's modified Eagle's medium containing 10% fetal bovine serum. Cells were maintained at 37° C. in a humidified atmosphere containing 5% CO2, and counted in a Neubauer chamber after trypan blue dye addition (cell/dye volume=1/1) by visualization under a Nikon inverted microscope.
# The studies described above using the VX2 tumor model for liver cancer predict that 2DOG and 3BrPA may have the capacity to kill hepatoma cells expressing the high glycolytic/high hexokinase phenotype. […] Cell killing was assessed in these experiments by counting those cells in which trypan blue had entered.
# [1] = Biodistribution of 14C radiolabeled 3-bromopyruvate in rabbit Vx-2 model; type: in vivo
# Protocol: In order to properly design a treatment protocol that would ensure survival of the animal with the least amount of toxicity, the biodistribution of 3-bromopyruvate given either IV or intraarterially over a period of 24 hours was investigated. For this series of experiments, radioactive 3-bromopyruvate using ^14C was synthesized. The use of ^14C labeled 3-bromopyruvate would allow monitoring in each tissue.
# 36 rabbits were divided into two groups of 18 animals each. Group 1 was treated intraarterially and group 2 received intravenous injection of 3-bromopyruvate. Each group was further subdivided into six groups of three rabbits each, corresponding to various time points of sacrifice (0, 30, 60, 120 and 240 minutes and 24 hours). All rabbits were fasted for 24 hours prior to treatment. The rabbits treated intraarterially received a one-hour infusion of 25 cc of 1.75 mM 3-bromopyruvate in PBS and those treated intravenously received a one-hour infusion of 25 cc of 20 mM 3-bromopyruvate in PBS. The difference in doses of 3-bromopyruvate between intraarterial and intravenous administration is based on the optimal dose for each method of administration. Radiolabeled 3-bromopyruvate (200 μCi, 100 μL) was added to each 25 ml treatment solution. One hour before sacrifice, 1 ml of 18FDG (1 mCi) was injected via an ear vein to monitor glucose uptake.
# The purpose of the injection of FDG was to correlate the effects of 3-bromopyruvate with glucose uptake. […] This finding, also present when the drug was given intraarterially, was more pronounced and the accumulation of 3-bromopyruvate is prolonged compared to IV administration.
# [2] = IA one-hour infusion 25 cc 1.75 mM
compound,measurement,setting,value
O=C(O)C(=O)CBr [3-bromopyruvate],inhibition of VX2 tumor glycolysis (screen),"VX2 tumor glycolysis; 6 mM agent, 6 mM glucose, VX2 tumor slices, 37° C., 5 h",almost completely inhibited
same,concentration for maximal / complete inhibition of glycolysis,"VX2 tumor glycolysis; VX2 tumor slices, 2DOG maximal (70%), 3BrPA complete",about 15 mM
same,IC50,"VX2 tumor glycolysis; prior incubated 30 min at 37° C. with 1 g VX2 tumor slices, read-out: half maximal inhibition of glycolysis",2400 µM
same,cell killing,AS-30D hepatoma cells,all cells
same,levels in the brain,[1]; 14C label,virtually undetectable
same,"accumulation in other organs including brain, lungs and heart",[1]; [2],no accumulation
same,retention in the tumor,[1]; [2],stayed within the tumor up to 24 hours
same,clearance route,"[1]; IA, lesser extent through the kidneys",mostly through the liver
same,"uptake by organs (heart, lung and brain)",[1]; IV one-hour infusion 25 cc 20 mM,no significant uptake
same,time of maximal tumor uptake,[1]; after IV injection,4 h
same,blood brain barrier penetration,"[1]; rabbit, in vivo",does not cross the blood brain barrier
same,inhibition of FDG (glucose) uptake in organs,"[1]; rabbit, in vivo",no inhibition
same,tissue damage at histopathologic analysis,"[1]; rabbit, in vivo",none of the organs showed any associated tissue damage
